Test systems include A549; BT-549; CAKI-1; DU-145; MOLT-4; NCI-H226; NCI-H522; NCI/ADR-RES; OVCAR-8; RPMI-8226; SF-295; SK-MEL-5; SK-OV-3; SN12C; U-251; HCC 2998; HL-60; MDA-N; SF-539; UACC-257.
Assay in all cases: inhibition of tumour cell growth, NCI panel, 48 h

Structures are written as SMILES.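 Cells were grown in 96-well plates and exposed to each compound for 48 hours at five concentrations; endpoints were interpolated linearly between bracketing concentrations, or set to the highest concentration if not reached. Abbreviation: GI50, concentration required for 50% inhibition of growth.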 Calls of active or inactive are those of the source. Rule as the data show it: active = GI50 up to about 1.1 µM and inactive = higher.

For `c1ccc(CCN2CCCCCC2)nc1`, the GI50 in the test with A549, in the test with BT-549, in the test on CAKI-1, in the test on DU-145, in the test with MOLT-4 and in the test with NCI-H226 was > 100 µM (inactive) in each case. In addition, the GI50 in the test on NCI-H522, with NCI/ADR-RES, in the test with OVCAR-8, in the test on RPMI-8226, with SF-295 and with SK-MEL-5 was > 100 µM (inactive) throughout. Also, the GI50 in the test with SK-OV-3, with SN12C and in the test on U-251 was > 100 µM (inactive) each time.

As for `O=C(N/C(=C\NC1=NCCS1)C(=O)N1CSC[C@@H]1C(=O)O)c1ccccc1`, the GI50 in the test on A549, with CAKI-1, with DU-145, in the test with HCC 2998, in the test with HL-60 and with MDA-N was > 100 µM (inactive) each time. For the same molecule, the GI50 in the test with MOLT-4, in the test on NCI-H226, in the test on NCI/ADR-RES, in the test on OVCAR-8, in the test on RPMI-8226 and in the test with SF-295 was > 100 µM (inactive) throughout. In addition, the GI50 with SF-539, with SK-MEL-5, with SK-OV-3, in the test with SN12C, in the test with U-251 and with UACC-257 was > 100 µM (inactive) in each case.

`COc1cc(C=O)cc(/C=N/n2c3ccccc3c3ccccc32)c1O`: the GI50 is > 100 µM (inactive) in the test on A549; 2.94 µM (inactive) with BT-549; 31.8 µM (inactive) in the test with CAKI-1; > 100 µM (inactive) with DU-145; 19.3 µM (inactive) in the test with HCC 2998; 5.81 µM (inactive) in the test with HL-60. For the same molecule, the GI50 with MOLT-4 is 16.9 µM (inactive); in the test with NCI-H226 it was 6.3 µM (inactive); with NCI-H522, 33.6 µM (inactive); with OVCAR-8, 8.09 µM (inactive); in the test on RPMI-8226 it was 5.01 µM (inactive); in the test with SF-295 it was 3.17 µM (inactive). The GI50 in the test on SF-539 is 4.32 µM (inactive); with SK-OV-3 it was 6.76 µM (inactive); with SN12C it was 5.46 µM (inactive); in the test on U-251 it was 9.04 µM (inactive); in the test on UACC-257, 26.8 µM (inactive).

With `O=C1CN(/N=C/c2ccc(-c3ccc(F)cc3)o2)C(=O)N1`, the GI50 is 52.2 µM (inactive) in the test on A549; 58.6 µM (inactive) in the test on CAKI-1; > 100 µM (inactive) in the test on DU-145; 80.9 µM (inactive) with HCC 2998; 55.6 µM (inactive) in the test on HL-60; 16.9 µM (inactive) in the test on MDA-N. Moreover, the GI50 in the test on MOLT-4 is 91.4 µM (inactive); with NCI-H226 it was 32.2 µM (inactive); in the test on NCI-H522, 21.1 µM (inactive); in the test with NCI/ADR-RES it was 25.9 µM (inactive); with OVCAR-8, > 100 µM (inactive); in the test on RPMI-8226 it was 28 µM (inactive). The GI50 in the test on SF-295 is 55.7 µM (inactive); in the test with SF-539 it was 34.4 µM (inactive); in the test with SK-MEL-5, 26.4 µM (inactive); with SK-OV-3 it was > 100 µM (inactive); in the test with SN12C, 91.2 µM (inactive); with U-251 it was 89.3 µM (inactive). The GI50 with UACC-257 is 21.8 µM (inactive).

As to `N#CCCC[Si]12OCCN(CCO1)CCO2`, the GI50 in the test on A549, with CAKI-1, in the test on HCC 2998, in the test on HL-60, in the test with MOLT-4 and in the test on NCI-H226 was > 100 µM (inactive) throughout. Besides, the GI50 in the test on NCI-H522, in the test with OVCAR-8, in the test on RPMI-8226, with SF-295, in the test with SF-539 and in the test with SK-MEL-5 was > 100 µM (inactive) each time. The GI50 in the test with SK-OV-3, with SN12C, in the test on U-251 and with UACC-257 was > 100 µM (inactive) each time.

For `OCC1C(O)C(O)[C@@H]2SCCN12` (stereo partly drawn), the GI50 in the test with A549, with BT-549, in the test on CAKI-1, in the test with DU-145, in the test with HCC 2998 and with HL-60 was > 100 µM (inactive) throughout. The GI50 in the test with MOLT-4, with NCI-H226, in the test on NCI-H522, in the test with NCI/ADR-RES, in the test on OVCAR-8 and in the test on RPMI-8226 was > 100 µM (inactive) throughout. Also, the GI50 in the test on SF-295, in the test with SK-MEL-5, with SK-OV-3, in the test with U-251 and with UACC-257 was > 100 µM (inactive) each time.

With `O=C1O/C(=C(/Br)c2ccc(Cl)c(Cl)c2)c2ccccc21`, the GI50 in the test on A549, in the test on CAKI-1, in the test on DU-145, in the test on HCC 2998, in the test with HL-60 and in the test on MDA-N was > 10 µM (inactive) each time. For the same molecule, the GI50 with MOLT-4, in the test on NCI-H226, in the test on NCI-H522, in the test on NCI/ADR-RES, in the test on OVCAR-8 and in the test on RPMI-8226 was > 10 µM (inactive) in each case. The GI50 with SF-295, with SF-539, with SK-MEL-5, with SK-OV-3, in the test with SN12C and in the test with U-251 was > 10 µM (inactive) throughout. In addition, the GI50 in the test with UACC-257 was > 10 µM (inactive).

On to `O=C(CBr)N1CCC2(CC1)SSC1(CCN(C(=O)CBr)CC1)S2`, for which the GI50 with A549 is 1.98 µM (inactive); in the test with HL-60, 1.59 µM (inactive); in the test on MDA-N, 1.31 µM (inactive); in the test with MOLT-4 it was 0.159 µM (active); with NCI/ADR-RES, 1.97 µM (inactive); in the test with OVCAR-8, 1.93 µM (inactive). Besides, the GI50 is 0.356 µM (active) with RPMI-8226; 1.94 µM (inactive) in the test on SF-295; 1.68 µM (inactive) in the test with SF-539; 1.41 µM (inactive) in the test on SK-OV-3; 1.93 µM (inactive) in the test with SN12C; 1.59 µM (inactive) in the test on U-251. For the same molecule, the GI50 in the test with UACC-257 was 2.76 µM (inactive).

For `CC(=O)Nc1ccc2c(c1)C(=O)c1cccc(F)c1-2`, the GI50 was 49.2 µM (inactive) with A549; 4.45 µM (inactive) in the test on BT-549; 41.1 µM (inactive) in the test with CAKI-1; 0.113 µM (active) in the test on DU-145; > 100 µM (inactive) in the test with HL-60; 25.3 µM (inactive) with MOLT-4. Moreover, the GI50 is 35.2 µM (inactive) in the test with NCI-H226; 36.5 µM (inactive) with NCI-H522; 48.2 µM (inactive) with NCI/ADR-RES; 58.2 µM (inactive) in the test with OVCAR-8; 38.8 µM (inactive) in the test on RPMI-8226; 54.2 µM (inactive) in the test with SF-295. For the same molecule, the GI50 was 0.0234 µM (active) in the test on SF-539; 45.4 µM (inactive) with SK-MEL-5; > 100 µM (inactive) in the test with SK-OV-3; 42.2 µM (inactive) in the test on SN12C; 38.6 µM (inactive) in the test with U-251; 97.5 µM (inactive) with UACC-257.

As for `Cc1cn(C2OC(CO[Si](C)(C)C(C)(C)C)/C(=C\C#N)C2O[Si](C)(C)C(C)(C)C)c(=O)[nH]c1=O` (stereo not drawn), the GI50 was 41.6 µM (inactive) in the test on A549; > 100 µM (inactive) in the test on CAKI-1; 81.8 µM (inactive) in the test on DU-145; > 100 µM (inactive) with MDA-N; > 100 µM (inactive) in the test on MOLT-4; > 100 µM (inactive) in the test with NCI-H226. The GI50 is > 100 µM (inactive) in the test on NCI/ADR-RES; > 100 µM (inactive) in the test with RPMI-8226; 6.67 µM (inactive) with SF-295; 6.75 µM (inactive) with SF-539; 6.87 µM (inactive) with SK-MEL-5; > 100 µM (inactive) in the test with SK-OV-3. The GI50 in the test with SN12C is 64.6 µM (inactive); in the test on U-251 it was 38.4 µM (inactive); in the test with UACC-257 it was 63.5 µM (inactive).

Turning to `COC1(OC)CCCCCCCCC(OC)(OC)CCCCCCCC1`, the GI50 with A549, in the test on CAKI-1, in the test with DU-145, in the test with HCC 2998, in the test on HL-60 and with MDA-N was > 100 µM (inactive) in each case. Also, the GI50 with NCI-H226, with NCI-H522, with NCI/ADR-RES, with OVCAR-8, in the test on SF-295 and in the test on SF-539 was > 100 µM (inactive) in each case. The GI50 with SK-MEL-5, in the test on SK-OV-3, in the test with SN12C, in the test on U-251 and in the test on UACC-257 was > 100 µM (inactive) in each case.

As to `CC(C)NC(=O)OCc1c(COC(=O)NC(C)C)c(-c2ccc(Cl)c(Cl)c2)n2c1CCC2`, the GI50 in the test with A549 is 21.1 µM (inactive); in the test with BT-549, > 100 µM (inactive); in the test on CAKI-1, 20.9 µM (inactive); with DU-145, > 100 µM (inactive); in the test with HCC 2998, 43.6 µM (inactive); in the test on HL-60, 26.6 µM (inactive). In addition, the GI50 is 13.7 µM (inactive) in the test with MOLT-4; 28.1 µM (inactive) in the test on NCI-H226; > 62.4 µM (inactive) in the test with NCI-H522; > 89.7 µM (inactive) with NCI/ADR-RES; 46.6 µM (inactive) in the test on OVCAR-8; 17.9 µM (inactive) with RPMI-8226. For the same molecule, the GI50 in the test with SF-295 is 48.1 µM (inactive); in the test with SF-539, 43.5 µM (inactive); in the test on SK-MEL-5, 24.9 µM (inactive); with SK-OV-3, 61.4 µM (inactive); in the test with SN12C, 49.4 µM (inactive); with U-251, 51.3 µM (inactive). In addition, the GI50 in the test with UACC-257 was 49.7 µM (inactive).

The values above are taken from ChEMBL document CHEMBL1201862, “PubChem BioAssay data set” (2004).
